US9107967B2, “Apparatus and method for treating stored crops infected with toxins” (Pureline Treatment Systems, LLC, priority 2010, dated 2015)

Legend:
[1] = Treatment of mash from mycotoxin-infected ground corn with heated aqueous ClO2 solution, then testing mash for mycotoxins; settings: mash exposed to 200 ppm aqueous ClO2 solution heated to 185° F for two hours; untreated 12 ppm
Method: Applicants conducted another study in order to determine the effects of ClO2 on toxins. Applicants obtained corn infected with mycotoxins and mycotoxin-producing microorganisms. Applicants ground the corn kernels and mixed them with water to form a mash, similar to what is used in various fermentation plants. Applicants heated an aqueous ClO2 solution with a concentration of 200 ppm to 185° F. Applicants then exposed the mash to the heated aqueous chlorine dioxide solution for two hours. Applicants drained the aqueous ClO2 solution from the mash. Applicants tested the mash for the presence of mycotoxins. Applicants also tested untreated mash from the same batch for the presence of mycotoxins.

[2] = Application of aqueous ClO2 solution to wheat during tempering or sweating; settings: 75 ppm aqueous ClO2 solution applied for 12 hours during tempering; approximately 12 ppm prior to application
Method: During processing of certain grains, such as wheat, a sweating or tempering step is used. During this step, the grain is contacted with water. The grain can be contacted with water for various amounts of time. In some examples the contacting occurs over night, in other examples the contacting occurs from 12-24 hours. This can be used as an opportunity the introduce an aqueous ClO2 solution.
Applicants conducted a study where a 75 ppm aqueous ClO2 solution was applied to wheat during tempering or sweating. The aqueous ClO2 solution was applied to the wheat for 12 hours.

[3] = Treatment of mycotoxin-infected corn kernels with aqueous ClO2 solution, then testing ground corn for mycotoxins; settings: corn kernels exposed to 400 ppm aqueous ClO2 solution for two hours; untreated corn 9 ppm
Description: Applicants conducted a study in order to determine the effects of ClO2 on toxins. Applicants obtained corn infected with mycotoxins and mycotoxin-producing microorganisms. Applicants exposed the corn kernels to an aqueous ClO2 solution with a concentration of 400 ppm for two hours. Applicants drained the aqueous ClO2 solution from the corn. Applicants ground the corn and tested for the presence of mycotoxins. Applicants also ground untreated corn from the batch and tested that corn for the presence of mycotoxins.

[O][Cl+][O-] [ClO2, chlorine dioxide]
concentration of Vomitoxin in treated corn (mash) [1]: 0.5 ppm | concentration of Vomitoxin in wheat after application [2]: approximately 1 ppm | concentration of Vomitoxin in treated corn [3]: 2.3 ppm
